The supplement of paper PMC4862054
Values belong to the compound of their own block, whether it stands above or below them.

Legend:
HDQ-P1 [1] = assay: normalised viability (% of control), CellTiter-Blue; higher = more viable cells (about 100 = DMSO control); details: incubation time: 72 h
Experimental: (§1)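 DSRT, CellTiter-Blue viability, 72 h incubation. Signal is normalised to DMSO and benzethonium chloride controls. Value is the normalised response at dose 9.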

CAL-51 = assay: as above; details: incubation time: 72 h
Experimental: as §1

CAL-148 = assay: as above; details: incubation time: 72 h
Experimental: as §1

DU-4475 = assay: as above; details: incubation time: 72 h
Experimental: as §1

CAL-85-1 [2] = assay: as above; details: incubation time: 72 h
Experimental: as §1

MDA-MB-453 = assay: as above; details: incubation time: 72 h
Experimental: as §1

HDQ-P1 [3] = assay: normalised response (% of control), CellTiter-Glo; higher = more viable cells (100 = DMSO, 0 = benzethonium chloride kill control); details: incubation time: 72 h
Experimental: (§2)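 DSRT, 72 h incubation, CellTox Green / CellTiter-Glo readout. Signal is normalised to DMSO and benzethonium chloride controls. Value is the normalised response at the highest dose.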

BT-549 [4] = assay: as above; details: incubation time: 72 h
Experimental: as §2

BT-474 = assay: as above; details: incubation time: 72 h
Experimental: as §2

MFM-223 = assay: as above; details: incubation time: 72 h
Experimental: as §2

CAL-120 [5] = assay: as above; details: incubation time: 72 h
Experimental: as §2

CAL-85-1 [6] = assay: as above; details: incubation time: 72 h
Experimental: as §2

MDA-MB-468 = assay: as above; details: incubation time: 72 h
Experimental: as §2

SK-BR-3 [7] = assay: as above; details: incubation time: 72 h
Experimental: as §2

MDA-MB-436 [8] = assay: as above; details: incubation time: 72 h
Experimental: as §2

HCC1937 [9] = assay: drug sensitivity score (DSS), CellTox Green (DSS (AUC-based score)); higher = stronger drug effect (viability inhibition or cytotoxicity); extreme values may be limits of the assay; details: incubation time: 72 h
Procedure, shortened: (§3)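 The drug sensitivity score reflects the area under a fitted dose-response curve. To obtain it, breast cancer cells in 20 µl suspension were seeded into 384-well plates containing compound at 5 concentrations, 10-fold apart over a compound-specific 10,000-fold range, and incubated 72 h. CellTox Green fluorescence (485/520 nm) was read first and CellTiter-Glo luminescence second, after 10 min at room temperature. Each plate was normalised to 0.1 % DMSO and a positive kill control.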

MDA-MB-231 = assay: as above; details: incubation time: 72 h
Procedure, shortened: as §3

Hs578T = assay: as above; details: incubation time: 72 h
Procedure, shortened: as §3

BT-549 [10] = details: 72 h
Procedure, shortened: (§4)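 Breast cancer cell lines in 20 µl suspension were seeded onto 384-well plates pre-loaded with compound dissolved in 5 µl medium, then incubated 72 h. For viability, 2.5 µl CellTiter-Blue was added for 2 h at 37 °C and fluorescence read at 560/590 nm. Each plate was normalised to vehicle and a positive kill control and checked by Z'-factor. EC50 comes from the fitted percent-inhibition dose-response curve, censored at the highest concentration; rows with zero drug sensitivity score were dropped.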

CAL-120 [11] = details: 72 h
Procedure, shortened: as §4

SK-BR-3 [12] = details: 72 h
Procedure, shortened: as §4

MDA-MB-436 [13] = details: 72 h
Procedure, shortened: as §4

HCC1937 [14] = details: 72 h
Procedure, shortened: as §4

Structure (SMILES): C=CCNC1=C2C[C@@H](C)C[C@H](OC)[C@H](O)[C@@H](C)/C=C(\C)[C@H](OC(N)=O)[C@@H](OC)/C=C\C=C(/C)C(=O)NC(=CC1=O)C2=O [Tanespimycin] (10000 nM)
- normalised viability (HDQ-P1 [1]): 24.8%
- normalised viability (CAL-51): 4.68%
- normalised viability (CAL-148): 9.8%
- normalised viability (DU-4475): -0.27%
- normalised viability (CAL-85-1 [2]): 21.8%
- normalised viability (MDA-MB-453): 3.61%
- normalised response (HDQ-P1 [3]): 20.7%
- normalised response (BT-549 [4]): 35.5%
- normalised response (BT-474): 22.3%
- normalised response (MFM-223): 38.1%
- normalised response (CAL-120 [5]): 42.3%
- normalised response (CAL-85-1 [6]): 21.2%
- normalised response (MDA-MB-468): 25.5%
- normalised response (SK-BR-3 [7]): 37.1%
- normalised response (MDA-MB-436 [8]): 41.8%

- EC50, CellTiter-Blue viability (BT-549 [10]): 0.18 nM
- EC50, CellTiter-Blue viability (SK-BR-3 [12]): 0.92 nM
- EC50, CellTiter-Blue viability (MDA-MB-436 [13]): 5.05 nM
Structure (SMILES): CO[C@H]1C[C@@H]2CC[C@@H](C)[C@@](O)(O2)C(=O)C(=O)N2CCCC[C@H]2C(=O)O[C@H]([C@H](C)C[C@@H]2CC[C@@H](OC(=O)C(C)(CO)CO)[C@H](OC)C2)CC(=O)[C@H](C)/C=C(\C)[C@@H](O)[C@@H](OC)C(=O)[C@H](C)C[C@H](C)/C=C/C=C/C=C/1C [Temsirolimus]
- drug sensitivity score (HCC1937 [9]): 0
- drug sensitivity score (MDA-MB-231): 0
- drug sensitivity score (Hs578T): 22.6
- EC50, CellTiter-Blue viability (CAL-120 [11]): 1.07 nM

Structure (SMILES): C[C@]1(c2nc3c(C(N)=O)cccc3[nH]2)CCCN1 [Veliparib] (10000 nM)
- normalised viability (HDQ-P1 [1]): 93.2%
- normalised viability (CAL-51): 94.7%
- normalised viability (CAL-148): 94.9%
- normalised viability (DU-4475): 81%
- normalised viability (CAL-85-1 [2]): 78.9%
- normalised viability (MDA-MB-453): 94.9%
- normalised response (HDQ-P1 [3]): 102%
- normalised response (BT-549 [4]): 95.7%
- normalised response (BT-474): 82.1%
- normalised response (MFM-223): 97.3%
- normalised response (CAL-120 [5]): 93.1%
- normalised response (CAL-85-1 [6]): 104%
- normalised response (MDA-MB-468): 75.5%
- normalised response (SK-BR-3 [7]): 90.9%
- normalised response (MDA-MB-436 [8]): 94.5%

Structure (SMILES): CC[C@]1(O)C[C@@H]2CN(CCc3c([nH]c4ccccc34)[C@@](C(=O)OC)(c3cc4c(cc3OC)N(C)[C@H]3[C@@](O)(C(=O)OC)[C@H](OC(C)=O)[C@]5(CC)C=CCN6CC[C@]43[C@@H]65)C2)C1 [Vinblastine] (1000 nM)
- normalised viability (HDQ-P1 [1]): 39.6%
- normalised viability (CAL-51): 11.4%
- normalised viability (CAL-148): 22.7%
- normalised viability (DU-4475): 7.08%
- normalised viability (CAL-85-1 [2]): 44.6%
- normalised viability (MDA-MB-453): 36.3%
- normalised response (HDQ-P1 [3]): 70.6%
- normalised response (BT-549 [4]): 34.3%
- normalised response (BT-474): 46.8%
- normalised response (MFM-223): 44.6%
- normalised response (CAL-120 [5]): 59.1%
- normalised response (CAL-85-1 [6]): 50.3%
- normalised response (MDA-MB-468): 33.9%
- normalised response (SK-BR-3 [7]): 17.6%
- normalised response (MDA-MB-436 [8]): 22.6%

- EC50, CellTiter-Blue viability (HCC1937 [14]): 3920 nM
- EC50, CellTiter-Blue viability (MDA-MB-436 [13]): 58.8 nM
Structure (SMILES): CS(=O)(=O)c1ccc(C(=O)Nc2ccc(Cl)c(-c3ccccn3)c2)c(Cl)c1 [Vismodegib]
- drug sensitivity score (HCC1937 [9]): 0
- drug sensitivity score (MDA-MB-231): 0
- drug sensitivity score (Hs578T): 1.09

Structure (SMILES): CS(=O)(=O)c1ccc(C(=O)Nc2ccc(Cl)c(-c3ccccn3)c2)c(Cl)c1 [Vismodegib] (10000 nM)
- normalised viability (HDQ-P1 [1]): 89.3%
- normalised viability (CAL-51): 109%
- normalised viability (CAL-148): 81.6%
- normalised viability (DU-4475): 123%
- normalised viability (CAL-85-1 [2]): 104%
- normalised viability (MDA-MB-453): 86.5%
- normalised response (HDQ-P1 [3]): 91.7%
- normalised response (BT-549 [4]): 102%
- normalised response (BT-474): 90.4%
- normalised response (MFM-223): 91.4%
- normalised response (CAL-120 [5]): 99.3%
- normalised response (CAL-85-1 [6]): 103%
- normalised response (MDA-MB-468): 97.2%
- normalised response (SK-BR-3 [7]): 87.3%
- normalised response (MDA-MB-436 [8]): 96.8%
